Test results published in paper PMC11476761, “Investigation of the Pharmacodynamic Components of Gastrodia elata Blume for Treatment of Type 2 Diabetes Mellitus through HPLC, Bioactivity, Network Pharmacology and Molecular Docking” (International Journal of Molecular Sciences, 2024).

Columns and labels:
Assay in all cases: PNPG hydrolysis, absorbance at […] nm
Format in all cases: biochemical
α-glucosidase [1] = target: T1, α-glucosidase; details: PNPG substrate, 0.2 U/mL enzyme, pH 6.8, 10 min
T1 construct: gene MAL12; pNPG assay at pH 6.8 as usual for the yeast enzyme

α-glucosidase [2] = tested on: T1, α-glucosidase; details: PNPG substrate, 0.2 U/mL enzyme, pH 6.8, 10 min; unreliable: text b23 swaps the parishin B and C values
α-glucosidase [3] = tested on: T1, α-glucosidase; details: PNPG substrate, 0.2 U/mL enzyme, pH 6.8, 10 min; unreliable: text b23 swaps the parishin B and C values; remark: listed apart in the source

O=C(O)CC(O)(CC(=O)OCc1ccc(O[C@@H]2O[C@H](CO)[C@@H](O)[C@H](O)[C@H]2O)cc1)C(=O)O (stereo partly drawn) [Parishin E]
Parishin E (α-glucosidase [1]): 0.54 ± 0.04 mg/mL

OCc1ccc(O[C@@H]2O[C@H](CO)[C@@H](O)[C@H](O)[C@H]2O)cc1 [GAS]
GAS (α-glucosidase [1]): 1.23 ± 0.09 mg/mL

O=C(CC(O)(CC(=O)OCc1ccc(O[C@@H]2O[C@H](CO)[C@@H](O)[C@H](O)[C@H]2O)cc1)C(=O)O)OCc1ccc(O[C@@H]2O[C@H](CO)[C@@H](O)[C@H](O)[C@H]2O)cc1 [Parishin C]
Parishin C (α-glucosidase [2]): 0.19 ± 0.03 mg/mL

O=C(CC(O)(CC(=O)OCc1ccc(O[C@@H]2O[C@H](CO)[C@@H](O)[C@H](O)[C@H]2O)cc1)C(=O)OCc1ccc(O[C@@H]2O[C@H](CO)[C@@H](O)[C@H](O)[C@H]2O)cc1)OCc1ccc(O[C@@H]2O[C@H](CO)[C@@H](O)[C@H](O)[C@H]2O)cc1 [Parishin A]
Parishin A (α-glucosidase [1]): 0.24 ± 0.05 mg/mL

OCc1ccc(O)cc1 [HBA]
HBA (α-glucosidase [1]): 0.16 ± 0.03 mg/mL

O=C(O)CC(O)(CC(=O)OCc1ccc(O[C@@H]2O[C@H](CO)[C@@H](O)[C@H](O)[C@H]2O)cc1)C(=O)OCc1ccc(O[C@@H]2O[C@H](CO)[C@@H](O)[C@H](O)[C@H]2O)cc1 (stereo partly drawn) [Parishin B]
Parishin B (α-glucosidase [3]): 0.13 ± 0.03 mg/mL
